In US7115609B2, “Alanyl-piperidine heterocyclic derivatives useful against cardiovascular diseases” (Eli Lilly and Company, priority 2001, dated 2006):

SMILES: CN1CCC(C2CCN(C(=O)[C@@H](Cc3cccnc3)NC(=O)c3ccc4cc[nH]c4c3)CC2)CC1.Cl
- melting point: 177 to 182 °C (dec.)

SMILES: CN1CCC(C2CCN(C(=O)[C@@H](Cc3ccncc3)NC(=O)c3ccc4cc[nH]c4c3)CC2)CC1.Cl
- melting point: 183 to 186 °C (dec.)

SMILES: CN1CCC(C2CCN(C(=O)[C@@H](Cc3ccccn3)NC(=O)c3ccc4cc[nH]c4c3)CC2)CC1.Cl
- melting point: 175 to 179 °C (dec.)

SMILES: CN1CCC(C2CCN(C(=O)[C@@H](Cc3cn(C)cn3)NC(=O)c3ccc4cc[nH]c4c3)CC2)CC1.Cl
- melting point: 179 to 185 °C (dec.)

SMILES: CN1CCC(C2CCN(C(=O)[C@@H](CC3CCCCC3)NC(=O)c3ccc4cc[nH]c4c3)CC2)CC1.Cl
- melting point: 162 to 172 °C (dec.)

SMILES: CN1CCC(C2CCN(C(=O)[C@H](CC3CCOCC3)NC(=O)c3ccc4cc[nH]c4c3)CC2)CC1.Cl
- melting point: 162 to 178 °C (dec.)

SMILES: CN1CCC(N2CCN(C(=O)[C@@H](Cc3ccncc3)NC(=O)c3ccc4cc[nH]c4c3)CC2)CC1.Cl
- melting point: 228 to 235 °C (dec.)

SMILES: CN1CCC(N2CCN(C(=O)[C@@H](Cc3ccncc3)NC(=O)c3cc4ccc(Cl)cc4s3)CC2)CC1.Cl
- melting point: 213 to 217 °C (dec.)

SMILES: CN1CCC(N2CCN(C(=O)[C@@H](Cc3ccncc3)NC(=O)c3cc4cc(Cl)ccc4[nH]3)CC2)CC1.Cl
- melting point: 238 to 242 °C (dec.)

SMILES: CN1CCC(N2CCN(C(=O)[C@@H](Cc3ccccn3)NC(=O)c3cc4ccc(Cl)cc4s3)CC2)CC1.Cl
- melting point: 219 to 223 °C (dec.)

SMILES: CN1CCC(N2CCN(C(=O)[C@@H](Cc3ccccn3)NC(=O)c3ccc4cc[nH]c4c3)CC2)CC1.Cl
- melting point: 232 to 235 °C (dec.)

SMILES: CN1CCC(N2CCN(C(=O)[C@@H](Cc3ccccn3)NC(=O)c3cc4cc(Cl)ccc4[nH]3)CC2)CC1.Cl
- melting point: 210 to 214 °C (dec.)

SMILES: CN1CCC(N2CCN(C(=O)[C@@H](CCC(=O)O)NC(=O)c3ccc4cc[nH]c4c3)CC2)CC1.Cl
- melting point: 215 to 218 °C (dec.)

SMILES: CN1CCC(N2CCN(C(=O)[C@@H](CCC(=O)O)NC(=O)c3cc4ccc(Cl)cc4s3)CC2)CC1.Cl
- melting point: 185 to 190 °C (dec.)

SMILES: CN1CCC(N2CCN(C(=O)[C@@H](CCC(=O)O)NC(=O)c3cc4cc(Cl)ccc4[nH]3)CC2)CC1.Cl
- melting point: 222 to 225 °C (dec.)

SMILES: CN1CCC(C[C@@H](NC(=O)c2cc3ccc(Cl)cc3s2)C(=O)N2CCN(C3CCN(C)CC3)CC2)CC1.Cl
- melting point: 220 to 223 °C (dec.)

SMILES: CN1CCC(C[C@@H](NC(=O)c2ccc3cc[nH]c3c2)C(=O)N2CCN(C3CCN(C)CC3)CC2)CC1.Cl
- melting point: 190 to 193 °C (dec.)

SMILES: CN1CCC(C[C@@H](NC(=O)c2cc3cc(Cl)ccc3[nH]2)C(=O)N2CCN(C3CCN(C)CC3)CC2)CC1.Cl
- melting point: 205 to 210 °C (dec.)

SMILES: CN1CCC(N2CCN(C(=O)[C@@H](CC(N)=O)NC(=O)c3ccc4cc[nH]c4c3)CC2)CC1.Cl
- melting point: 215 to 219 °C (dec.)

SMILES: CN1CCC(N2CCN(C(=O)[C@@H](CC(N)=O)NC(=O)c3cc4ccc(Cl)cc4s3)CC2)CC1.Cl
- melting point: 219 to 223 °C (dec.)

SMILES: CN1CCC(N2CCN(C(=O)[C@@H](CC(N)=O)NC(=O)c3cc4cc(Cl)ccc4[nH]3)CC2)CC1.Cl
- melting point: 235 to 240 °C (dec.)
